Results on 64 compounds are retold here after patent publication US12071414B2, “Apelin receptor agonists and methods of use thereof” (Sanford Burnham Prebys Medical Discovery Institute, priority 2015, dated 2024).

In one assay the test system is heart.
Experiment: not given
The conditions noted are these: read-out: EC50 of positive inotropic effect; in humans; cited from earlier work.
Broadly, the EC50 is the concentration needed to bring the measured effect to its halfway point. In the case of apelin-16, the 50% effective concentration (EC50) is 0.04 to 0.125 nM.

The target of the next assay is T1, human apelin receptor (APJ, AGTRL-one, APLNR) (Homo sapiens, UniProt P35414).
T1 construct: host or cells: Chinese hamster ovary cells, stably integrated receptor
T1 sequence (P35414 1-380): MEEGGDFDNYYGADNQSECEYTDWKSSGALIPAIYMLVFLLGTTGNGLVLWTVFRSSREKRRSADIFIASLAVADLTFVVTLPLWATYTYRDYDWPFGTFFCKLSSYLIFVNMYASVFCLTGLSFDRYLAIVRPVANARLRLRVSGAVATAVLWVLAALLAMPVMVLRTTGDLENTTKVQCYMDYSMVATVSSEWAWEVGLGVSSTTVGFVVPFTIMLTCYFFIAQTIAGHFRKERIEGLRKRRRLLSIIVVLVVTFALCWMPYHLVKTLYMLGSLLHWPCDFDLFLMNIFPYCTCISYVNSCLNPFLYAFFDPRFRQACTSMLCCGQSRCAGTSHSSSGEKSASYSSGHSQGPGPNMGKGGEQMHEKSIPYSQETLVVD
The assay can be described thus: cell-based cAMP TR-FRET assay of apelin receptor activation. Particulars: CHO cells expressing human APJ, forskolin-stimulated cAMP, 0.5 h incubation, 50% of control (apelin-13, 1 nM) response; read-out: Potency Category (EC50). Summed up: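 CHO cells stably expressing human APJ were stimulated to raise cAMP, then incubated 0.5 h with compound (0.0-100 μM, ≤1% DMSO). Lysed cAMP measured by competitive TR-FRET immunoassay; efficacy as % of 1 nM apelin-13 response, potency from four-point logistic fit over ≥10 concentrations.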
In general terms: TR-FRET usually uses a lanthanide donor and a delayed reading to cut background.
Take `CCS(=O)(=O)c1ccc(C(Oc2ccc(OC)cc2)C(=O)Nc2nc3ccc(OC)cc3s2)cc1` (centres unmarked): the EC50 was greater than 500 nM.
Still for that read-out and setting: under `CCS(=O)(=O)c1ccc(C(Oc2ccc(C#N)cc2)C(=O)Nc2nc3cc(OCCO)c(OC)cc3s2)cc1` (centres unmarked) stands 200 to 500 nM; under `CCOc1c(OC)ccc2nc(NC(=O)C(Oc3ccc(C#N)cc3)c3ccc(S(=O)(=O)CC)cc3)sc12` (centres unmarked), less than 50 nM; under `COc1cc2nc(NC(=O)C(Oc3ccc(C#N)cc3)c3ccc([N+](=O)[O-])cc3)sc2cc1OC` (centres unmarked), less than 50 nM.
The same measure, in the same setting: under `CCS(=O)(=O)c1ccc(C(Oc2ccc(C3CCCC3)cc2)C(=O)Nc2nc3cc(OC)c(OC)cc3s2)cc1` (centres unmarked) stands 200 to 500 nM.
Regarding `CCS(=O)(=O)c1ccc(C(Oc2ccc(C#N)cc2)C(=O)Nc2nc3ccc(C)c(OC)c3s2)cc1` (centres unmarked), the EC50 fell in the range of 50 to 100 nM.
In the case of `COC(=O)c1ccc(OC(C(=O)Nc2nc3cc(OC)c(OC)cc3s2)c2ccc(C#N)cc2)cc1` (centres unmarked), the EC50 is less than 50 nM.
For `COc1cc2nc(NC(=O)Cc3ccc(S(=O)(=O)C(C)C)cc3)sc2cc1OC`, the EC50 was greater than 500 nM.
Consider `COc1cc2nc(NC(=O)C(Oc3ccc(C(=O)N4CCN(C)CC4)cc3)c3ccc(C#N)cc3)sc2cc1OC` (centres unmarked), for which the EC50 lay within 50 to 100 nM.
Still for that read-out and setting: in the case of `CCS(=O)(=O)c1ccc(C(Oc2ccc(C#N)cc2Cl)C(=O)Nc2nc3cc(OC)c(OC)cc3s2)cc1` (centres unmarked) it was less than 50 nM; in that of `CCS(=O)(=O)c1ccc(C(Oc2ccc(C#N)cc2)C(=O)Nc2nc3cc(OC)c(OC)cc3n2C)cc1` (centres unmarked), greater than 500 nM; in that of `CCS(=O)(=O)c1ccc(C(Oc2ccc(C#N)cc2)C(=O)Nc2nc3cc(OCCN(C)C)c(OC)cc3s2)cc1` (centres unmarked), greater than 500 nM.
Same read-out and setting: under `COC(=O)c1ccc(CC(=O)Nc2nc3cc(OC)c(OC)cc3s2)cc1` stands greater than 500 nM; under `CCS(=O)(=O)c1ccc(C(OCc2ccccc2)C(=O)Nc2nc3cc(OC)c(OC)cc3s2)cc1` (centres unmarked), greater than 500 nM; under `CCS(=O)(=O)c1ccc(C(Nc2ccc(OC)cc2)C(=O)Nc2nc3cc(OC)c(OC)cc3s2)cc1` (centres unmarked), greater than 500 nM.
Take `CCS(=O)(=O)c1cccc(C(Oc2ccc(C#N)cc2)C(=O)Nc2nc3cc(OC)c(OC)cc3s2)c1` (centres unmarked): the EC50 fell in the range of 200 to 500 nM.
Same read-out and setting: under `CCS(=O)(=O)c1ccc(C(Oc2ccc(C#N)cc2)C(=O)Nc2nc3ccc4c(c3s2)OCO4)cc1` (centres unmarked) stands greater than 500 nM; under `CCS(=O)(=O)c1ccc(C(Oc2ccc(OC)cc2)C(=O)Nc2nc3c(OC)ccc(OC)c3s2)cc1` (centres unmarked), greater than 500 nM.
Regarding `CCS(=O)(=O)c1ccc(C(OCC(C)C)C(=O)Nc2nc3cc(OC)c(OC)cc3s2)cc1` (centres unmarked), the EC50 was greater than 500 nM.
As for `COc1cc2nc(NC(=O)C(Oc3ccc(C#N)cc3)c3cccc(S(=O)(=O)c4ccc(Cl)cc4)c3)sc2cc1OC` (centres unmarked), the concentration for a half-maximal effect (EC50) was in the range of 200 to 500 nM.
Same read-out and setting: under `CCCCS(=O)(=O)c1ccccc1C(Oc1ccc(C#N)cc1)C(=O)Nc1nc2cc(OC)c(OC)cc2s1` (centres unmarked) stands 200 to 500 nM.
Turning to `COc1cc2nc(NC(=O)C(Oc3ccc(C#N)cc3)c3ccc(F)cc3)sc2cc1OC` (centres unmarked), the EC50 lay in the range of 200 to 500 nM.
In the case of `CCS(=O)(=O)c1ccc(C(Oc2ccc(C#N)c(Cl)c2)C(=O)Nc2nc3cc(OC)c(OC)cc3s2)cc1` (centres unmarked), the EC50 is less than 50 nM.
On the same count and under the same terms, in the case of `COc1ccc(OC(C(=O)Nc2nc3cc(OC)c(OC)cc3s2)c2ccccc2S(=O)(=O)c2ccc(OC)cc2)cc1` (centres unmarked) it was greater than 500 nM.
Still for that read-out and setting: under `CCS(=O)(=O)c1ccc(C(Oc2ccc(OC)cc2)C(=O)Nc2nc3ccc4c(c3s2)OCCO4)cc1` (centres unmarked) stands greater than 500 nM; under `CCS(=O)(=O)c1ccc(C(Oc2ccc(C#N)cc2)C(=O)Nc2cc3ccccc3[nH]2)cc1` (centres unmarked), greater than 500 nM; under `COc1cc2nc(NC(=O)C(Oc3ccc(C(=O)NCCO)cc3)c3ccc(C#N)cc3)sc2cc1OC` (centres unmarked), 200 to 500 nM.
Turning to `CCS(=O)(=O)c1ccc(C(Oc2ccc([N+](=O)[O-])cc2)C(=O)Nc2nc3cc(OC)c(OC)cc3s2)cc1` (centres unmarked), the EC50 was less than 50 nM.
For the compound `COc1cc2nc(NC(=O)C(Oc3ccc(C#N)cc3)c3ccc(OCCN4CCCCC4)cc3)sc2cc1OC` (centres unmarked), the EC50 was in the range of 200 to 500 nM.
Still for that read-out and setting: in the case of `CCS(=O)(=O)c1ccc(C(OC(C)C)C(=O)Nc2nc3cc(OC)c(OC)cc3s2)cc1` (centres unmarked) it was greater than 500 nM.
`COc1cc2nc(NC(=O)C(Oc3ccc(C#N)cc3)c3ccccc3)sc2cc1OC` (centres unmarked): the EC50 lay within 100 to 200 nM.
Same read-out and setting: under `COCCS(=O)(=O)c1ccc(C(Oc2ccc(C#N)cc2)C(=O)Nc2nc3cc(OC)c(OC)cc3s2)cc1` (centres unmarked) stands less than 50 nM; under `CCS(=O)(=O)c1ccc(C(Oc2ccc(I)cc2)C(=O)Nc2nc3cc(OC)c(OC)cc3s2)cc1` (centres unmarked), 200 to 500 nM.
Consider `CCS(=O)(=O)c1ccc(C(C(=O)Nc2nc3cc(OC)c(OC)cc3s2)C(C)C)cc1` (centres unmarked), for which the EC50 was in the range of 200 to 500 nM.
Still for that read-out and setting: under `COc1cc2nc(NC(=O)C(Oc3ccc(C#N)cc3)c3ccc(OCCN4CCOCC4)cc3)sc2cc1OC` (centres unmarked) stands 200 to 500 nM; under `COC(=O)c1cccc(CC(=O)Nc2nc3cc(OC)c(OC)cc3s2)c1`, greater than 500 nM; under `CCS(=O)(=O)c1ccc(C(Oc2ccc(C3CCCCC3)cc2)C(=O)Nc2nc3cc(OC)c(OC)cc3s2)cc1` (centres unmarked), greater than 500 nM.
Still for that read-out and setting: in the case of `COc1cc2nc(NC(=O)C(Oc3ccc(C#N)cc3)c3ccc(S(=O)(=O)C(C)C)cc3)sc2cc1OC` (centres unmarked) it was less than 50 nM; in that of `CCS(=O)(=O)c1ccc(C(C(=O)Nc2nc3cc(OC)c(OC)cc3s2)N2CCOCC2)cc1` (centres unmarked), greater than 500 nM; in that of `CCCCc1ccc(OC(C(=O)Nc2nc3cc(OC)c(OC)cc3s2)c2ccc(S(=O)(=O)CC)cc2)cc1` (centres unmarked), greater than 500 nM.
Same read-out and setting: under `CCS(=O)(=O)c1ccc(C(Oc2ccc(C#N)cc2)C(=O)Nc2nc3nc(OCCOC)c(OC)cc3s2)cc1` (centres unmarked) stands greater than 500 nM; under `COc1cc2nc(NC(=O)C(Oc3ccc(C#N)cc3)c3ccc(C#N)cc3)sc2cc1OC` (centres unmarked), less than 50 nM.
As to `CCS(=O)(=O)c1ccc(C(OCCC(C)C)C(=O)Nc2nc3cc(OC)c(OC)cc3s2)cc1` (centres unmarked), the 50% effective concentration (EC50) is greater than 500 nM.
The same measure, in the same setting: in the case of `CCS(=O)(=O)c1ccc(C(Oc2ccc3ccccc3c2)C(=O)Nc2nc3cc(OC)c(OC)cc3s2)cc1` (centres unmarked) it was greater than 500 nM.
Turning to `CCS(=O)(=O)c1ccc(C(Oc2cccc(Cl)c2)C(=O)Nc2nc3cc(OC)c(OC)cc3s2)cc1` (centres unmarked), the EC50 was greater than 500 nM.
The same measure, in the same setting: under `CCS(=O)(=O)c1ccc(C(Oc2ccc(C#N)cc2)C(=O)Nc2nc3cc(OC)c(OC)cc3o2)cc1` (centres unmarked) stands less than 50 nM; under `COc1cc2nc(NC(=O)C(Oc3ccccc3)c3ccc(C#N)cc3)sc2cc1OC` (centres unmarked), greater than 500 nM.
As to `COc1cc2nc(NC(=O)C(Oc3ccc(C#N)cc3)c3ccc(C(=O)N(C)C)cc3)sc2cc1OC` (centres unmarked), the EC50 is less than 50 nM.
The same measure, in the same setting: under `CCS(=O)(=O)c1ccc(C(Oc2ccc(C#N)cc2)C(=O)Nc2nc3cc(OCc4ccccc4)c(OC)cc3s2)cc1` (centres unmarked) stands greater than 500 nM; under `CCS(=O)(=O)c1ccc(C(Oc2ccc(OC)cc2)C(=O)Nc2nc3cc4c(cc3s2)OCO4)cc1` (centres unmarked), greater than 500 nM.
Same read-out and setting: under `CCS(=O)(=O)c1ccc(C(OCc2ccc(C#N)cc2)C(=O)Nc2nc3cc(OC)c(OC)cc3s2)cc1` (centres unmarked) stands greater than 500 nM.
As to `CCS(=O)(=O)c1ccccc1C(Oc1ccc(C#N)cc1)C(=O)Nc1nc2cc(OC)c(OC)cc2s1` (centres unmarked), the EC50 was less than 50 nM.
Consider `CCS(=O)(=O)c1ccc(C(OCCc2ccccc2)C(=O)Nc2nc3cc(OC)c(OC)cc3s2)cc1` (centres unmarked), for which the EC50 is greater than 500 nM.
The same measure, in the same setting: under `COc1cc2nc(NC(=O)C(Oc3ccc(O)cc3)c3ccc(C#N)cc3)sc2cc1OC` (centres unmarked) stands greater than 500 nM.
Consider `COc1cc2nc(NC(=O)C(Oc3ccc(C#N)cc3)c3ccc(C(=O)NCCN4CCOCC4)cc3)sc2cc1OC` (centres unmarked), for which the EC50 lay within 100 to 200 nM.
For the compound `CCS(=O)(=O)c1cccc(CC(=O)Nc2nc3cc(OC)c(OC)cc3s2)c1`, the EC50 was greater than 500 nM.
Take `COc1cc2nc(NC(=O)C(Oc3ccc(OCCN(C)C)cc3)c3ccc(C#N)cc3)sc2cc1OC` (centres unmarked): the EC50 lay within 100 to 200 nM.
For the compound `CCS(=O)(=O)c1ccc(C(Oc2ccc(C#N)cc2)C(=O)Nc2nc3ccc(OCCN4CCN(C)CC4)cc3s2)cc1` (centres unmarked), the EC50 is greater than 500 nM.
Still for that read-out and setting: under `CCS(=O)(=O)c1ccc([C@H](Oc2ccc(C#N)cc2)C(=O)Nc2nc3cc(OC)c(OC)cc3s2)cc1` stands 200 to 500 nM.
Take `CCOc1cc2nc(NC(=O)C(Oc3ccc(C#N)cc3)c3ccc(S(=O)(=O)CC)cc3)sc2cc1OC` (centres unmarked): the EC50 was less than 50 nM.
Still for that read-out and setting: under `CCS(=O)(=O)c1ccc(C(Oc2ccc(OC(F)(F)F)cc2)C(=O)Nc2nc3cc(OC)c(OC)cc3s2)cc1` (centres unmarked) stands 200 to 500 nM.
Consider `CCOc1ccc(OC(C(=O)Nc2nc3cc(OC)c(OC)cc3s2)c2ccc(S(=O)(=O)CC)cc2)cc1` (centres unmarked), for which the EC50 was 200 to 500 nM.
Still for that read-out and setting: under `CCS(=O)(=O)c1ccc(C(Oc2ccc(C#N)cc2)C(=O)Nc2nc3cnc(OC)cc3s2)cc1` (centres unmarked) stands greater than 500 nM.

A further assay relates to isolated rat heart.
Experiment: not given
The conditions noted are these: read-out: EC50 of positive inotropic effect, in rats, infusion; cited from earlier work.
In the case of apelin-16, the EC50 is roughly 0.033 nM.
